Reference: patent US8163702B2, “Treatment of melanoma” (SciClone Pharmaceuticals, Inc., priority 2006, dated 2012)
Values joined by “and” are separate entries in the source; they are usually repeats but may differ in a detail not shown here. Equal values may be shown once.

Columns and labels:
murine B16 melanoma = test: Antitumor effect in murine B16 melanoma model, tumor size and tumor weight (Example 2); type: in vivo, C57BL/6 mice; details: for Tumor volumes (cm^3) on Day 15: Length × Width × Width/2; for Tumor measurements L / Tumor measurements W / Tumor volumes: DTIC 50 mg/kg
Description: As per aseptic tissue culture procedures, one vial of B16 melanoma cells (supplied by Cell Culture Center of CAMS) was thawed and centrifuged at 1000 rpm, 20-25° C. for 5 minutes. The cell pellets were suspended in 0.1-0.5 mL normal saline (NS) and subcutaneously injected into the right axilla of each mouse (approximately 1×10^6 cells/mouse). When the tumor diameter was 1 cm approximately (measured by vernier caliper), the animals were euthanized with CO2 asphyxiation and the tumor was excised. Tumor cells were suspended in normal saline as previously described and the cell adaptation cycle was repeated once.
On Day 0, 1×10^6 B16 cells in a volume of 0.1 mL normal saline were subcutaneously injected into the right axillary area of the mouse. The day of tumor inoculation was defined as Day 0.
Dosing was initiated on Day 1.
Observations were recorded daily for mortality and moribundity. […] The tumors were excised, separated, and weighed.
Tumor volume was calculated using the following formula: Tumor Volume=Length×Width×Width/2 Tumor volume inhibition rate (IR) was calculated according to the formula: IR(TV)=(TVvehicle−TVdrug treated)/TVvehicle×100% TV is the tumor volume on the day of measurement.
The antitumor effect of the test article was also evaluated by tumor weight. The tumor weight of each mouse was recorded after euthanasia, and the inhibition rate of tumor weight was calculated according to the formula: IR(TW)=(Tumor weightvehicle−Tumor weightdrug treated)/Tumor weightvehicle×100%

B16 melanoma = B16 melanoma tumor growth, tumor weight and survival in C57/Bl6 mice, i.p. treatment (Example 1); type: in vivo; details: DTIC 50 mg/kg i.p.
Description: Tumors were induced by injecting 1×10^6 B16 melanoma cells subcutaneously in the hind leg of C57/Bl6 syngeneic mice. Mice were randomized into 5 groups of 10 animals and treated with SCV-07 at doses of 0.001, 0.01, or 0.10 mg/kg administered daily i.p. for 3 consecutive days for 2 weeks, starting 3 days after tumor implantation. Control groups were treated with saline or dacarbazine (DTIC) at a dose of 50 mg/kg i.p. for 3 days. Tumor growth was assessed every 3 days by a caliper and tumor weight was measured upon death.
Mice were injected with B16 melanoma cells and divided into 5 groups of 10 mice each. Control mice were given injections of saline or dacarbazine (DTIC). The effects of different doses of SCV-07 were examined with respect to tumor growth rate and survival time.

[1] = DTIC 50 mg/kg (Group 2), Day 15, individual animals F1-F5, M1-M5

## CN(C)/N=N/c1[nH]cnc1C(N)=O [DTIC, Dacarbazine, reference compound]
Murine B16 melanoma; DTIC 50 mg/kg (Group 2), Day 15, individual animals F1-F5, M1-M5, female animals
  Tumor volumes (cm^3) on Day 15: 0.36 cm^3 and 0.15 cm^3 and 0.11 cm^3 and 0.01 cm^3
Murine B16 melanoma; DTIC 50 mg/kg (Group 2), Day 15, individual animals F1-F5, M1-M5, male animals
  Tumor volumes (cm^3) on Day 15: 0.03 cm^3 (2×) and 0.06 cm^3 and 0.17 cm^3 and 0.01 cm^3
Murine B16 melanoma; [1]
  Tumor measurements (cm) on Day 15, L: 0.3 cm (2×) and 0.4 cm (2×) and 0.7 cm and 0.9 cm and 0.5 cm and 1.2 cm and 0.6 cm
  Tumor measurements (cm) on Day 15, W: 0.3 cm (2×) and 0.4 cm (2×) and 0.7 cm and 0.5 cm (2×) and 0.9 cm and 0.6 cm
Murine B16 melanoma; DTIC 50 mg/kg (Group 2), Day 17, individual animals F1-F5, M1-M5, female animals
  Tumor weights (g) on Day 17: 0.70 g and 0.29 g and 0.98 g and 0.78 g and 0.5 g
Murine B16 melanoma; DTIC 50 mg/kg (Group 2), Day 17, individual animals F1-F5, M1-M5, male animals
  Tumor weights (g) on Day 17: 0.46 g and 0.54 g and 0.37 g and 0.915 g and 0.18 g
Murine B16 melanoma; Day 3, DTIC 50 mg/kg/day, not measurable defined as 0
  Tumor Volume (Mean ± SD): 0 cm^3
Murine B16 melanoma; Day 6, DTIC 50 mg/kg/day, not measurable defined as 0
  Tumor Volume (Mean ± SD): 0 cm^3
Murine B16 melanoma; Day 9, DTIC 50 mg/kg/day
  IR (tumor volume inhibition rate): 96.9%
  Tumor Volume (Mean ± SD): 0.001 ± 0.004 cm^3
Murine B16 melanoma; Day 9, mouse F2
  Tumor measurements L: 0.3 cm
  Tumor measurements W: 0.3 cm
  Tumor volumes: 0.01 cm^3
Murine B16 melanoma; Day 12, DTIC 50 mg/kg/day
  IR (tumor volume inhibition rate): 98.8%
  Tumor Volume (Mean ± SD): 0.009 ± 0.020 cm^3
Murine B16 melanoma; Day 12, mouse F1
  Tumor measurements L: 0.3 cm
  Tumor measurements W: 0.3 cm
  Tumor volumes: 0.01 cm^3
Murine B16 melanoma; Day 12, mouse F3
  Tumor measurements L: 0.1 cm
  Tumor measurements W: 0.1 cm
  Tumor volumes: 5E−04 cm^3
Murine B16 melanoma; Day 12, mouse F4
  Tumor measurements L: 0.3 cm
  Tumor measurements W: 0.3 cm
  Tumor volumes: 0.01 cm^3
Murine B16 melanoma; Day 12, mouse F5
  Tumor measurements L: 0.1 cm
  Tumor measurements W: 0.1 cm
  Tumor volumes: 5E−04 cm^3
Murine B16 melanoma; Day 12, mouse M2
  Tumor measurements L: 0.5 cm
  Tumor measurements W: 0.5 cm
  Tumor volumes: 0.06 cm^3
Murine B16 melanoma; Day 15, DTIC 50 mg/kg/day
  IR (tumor volume inhibition rate): 95.1%
  Tumor Volume (Mean ± SD): 0.095 ± 0.112 cm^3
Murine B16 melanoma; Day 17, DTIC 50 mg/kg/day
  IR (inhibition rate of tumor weight): 85.0%
  Tumor Weight (Mean ± SD): 0.57 ± 0.27 g
B16 melanoma; DAY 10 after tumor inoculation
  MEAN TUMOR VOLUME: 480 ± 13 mm^3
B16 melanoma; DAY 17 after tumor inoculation
  MEAN TUMOR VOLUME: 545 ± 170 mm^3
B16 melanoma; DAY 24
  DAY 24 % of control (inhibition in tumor growth): 19%
B16 melanoma; DAY 24 after tumor inoculation
  MEAN TUMOR VOLUME: 760 ± 220 mm^3
B16 melanoma
  mean tumor weight lower: 15%
